Source: PMC12746157, “Light-Regulated Agonists Spatiotemporally Activating the Vitamin D Receptor Mitigate Psoriasis-like Inflammation in Mice without Inducing Hypercalcemia” (ACS Central Science, 2025)
Each block holds one molecule with its values, some of them ahead of it.

Experiments:
[1] = Photostationary state (PSS) determination by HPLC-MS in aqueous assay buffer; format: physicochemical; details: 21 °C, HPLC-MS, 60 μM, aqueous buffer 0.6% DMSO
Method: (§1) The UV–vis absorbance spectra of all molecules were measured in the dark and after the application of light of different wavelengths ranging from 365 to 770 nm (Figure A and Figures S1–S3). […] Consequently, violet/UV light below 405 nm efficiently promoted photoisomerization, which produced a dramatic decrease in the π-π* band and a significant increase in the n-π* band at around 445 nm (Table ). […] The proportion of molecules at the PSS in trans isomer upon constant illumination with light at 525 nm and cis at 365 nm was in general above 50%, reaching a remarkable >99% for compound 11d (Table and Figures S4 and S5). […] The greater stability of the trans isomer was consistent with previous quantum mechanical and molecular mechanics predictions. Measuring the photoisomerization properties of compound PhotoVDRM allowed us to determine the photoisomerization quantum yields of the compound by solving a differential equation for photoisomerization. We used MATLAB to perform regression and arrive at the following photoisomerization quantum yields: ϕ365 nm (trans) = 0.0427, ϕ365 nm (cis) = 0.0501, ϕ470 nm (trans) = 0.1857, and ϕ470 nm (cis) = 0.2281 (Figure S9). Compound PhotoVDRM was also evaluated in aqueous buffer used for pharmacological experiments (0.5% DMSO) showing a thermal relaxation of 3 h, almost 7 times faster than in pure DMSO (Figure B). […] A deeper photocharacterization of PhotoVDRM allowed us to measure the kinetics of photoconversion upon constant illumination with two wavelengths and three light intensities (Figure D and Figure S10). […] Indeed, with LED devices producing light at intensities as low as 0.05 mW/mm^2 we were able to transform trans to cis in around 15.5 s. This time was reduced to 6 and 2 s when the light intensity was increased to 0.15 and 0.75 mW/mm^2. […] Therefore, we proceeded to test the ability of the chemical library to activate the VDR under different light conditions.
Photostationary state (PSS) determination. In a transparent vial, solutions of the compounds were prepared at a concentration of 60 µM from a 10 mM stock in DMSO, using the assay buffer of pharmacological experiments for dilution. Prior to illumination, a volume of 500 µL was transferred to an amber vial for the "dark" sample. The same procedure was repeated after exposing the transparent vial containing the 60 µM solutions to the following light conditions:
365nm for 3 minutes and 525nm for 3 minutes. […]
difference on isomeric proportions. For each sample, 20 µL was analyzed by HPLC-MS, and the isomer ratios were determined at the isosbestic point.
Isosbestic point determination. The solvent percentage for the elution of each isomer were calculated based on their retention times from HPLC analysis. Subsequently, 50 µM solutions were prepared from the 10 mM DMSO stock solution of each compound using the previously determined HPLC solvent mixture. The UV spectrum for each solution was recorded after illumination at 365 nm (30 seconds), at 400 nm (30 seconds), and at 525 nm (30 seconds). The spectra were overlaid to identify the isosbestic point of maximum intensity.
HPLC conditions. Analytical HPLC was performed on a Thermo Ultimate 3000SD (Thermo Scientific Dionex) coupled to a PDA detector and Mass Spectrometer LTQ XL ESI-ion trap (Thermo Scientific). Cromatographic separations were performed using a ZORBAX Eclipse Plus C18 (4.6 x 150mm; 3.5µm) column. The mobile phase consisted of an isocratic mixture of solvent A (water with 0.05% of formic acid) and solvent B (acetonitrile with 0.05% formic acid) at a 3:7 ratio for compounds 10a-d and a 2:3 ratio for compounds 11a-d and 12a-d. […]

[2] = UV-Vis absorption spectra and thermal relaxation of the cis isomers in DMSO; format: physicochemical; details: 60 μM in 100% DMSO, 37 °C
Method: as §1
2. Photochemical characterization. […]
(§2) (200 µL per well). The absorption spectra were recorded from 300 to 600 nm with 2 nm fixed intervals using a Tecan Spark 20M Multimode microplate reader. Initial measurements were performed in the dark, followed by spectra acquired immediately after each 3 min period of light irradiation at different wavelengths using 96-well LED array plates (LEDA Teleopto). Theoretical absorbance spectra corresponding to the pure cis isomer (100%) of each compound were calculated in order to obtain the theoretical percentage of cis isomer at each wavelength, according to the method described by Ernst Fischer (1967). Thermal relaxation kinetics of the experimental cis isomers were assessed in quartz cuvettes (10 mm optical path) containing freshly prepared 50 […]
Dark state absorbance at 365 nm was recorded at 37
ºC using a ThermoFisher Evolution 350 UV-Vis spectrophotometer. Samples were then irradiated for 3 minutes at 365 nm with a CoolLED pE-4000 light sourceto induce trans → cis photoisomerization.. Absorbance at 365 nm was subsequently monitored over 48 h: every 15 min during the first 24 h, and every 60 min during the following 24 h. Relaxation half-lives were determined by fitting the absorbance-time data to a […] exponential model using GraphPad Prism v10.4.1. […]

[3] = Proportions of cis and trans at the photostationary state in DMSO from absorbance spectra (Ernst Fischer method); format: physicochemical
Method: 2. Photochemical characterization.
as §2, with “A 50 µM solution of each compound in DMSO was dispensed into a transparent 96-well plate (200” for “(200”, “(1967).” for “(1967). Thermal relaxation kinetics of the experimental cis isomers were assessed in quartz cuvettes (10 mm optical path) containing freshly prepared 50”
Table S6. Proportions of cis and trans at the photostationary state in DMSO. […]

[4] = molecular target: T1, VDR (Homo sapiens, UniProt P11473); assay: Luminescent proximity homogeneous assay (AlphaScreen): interaction of purified VDR, RxR and TRAP220 coactivator fragment; format: biochemical
T1 sequence (P11473 whole entry, the tested form may be a part): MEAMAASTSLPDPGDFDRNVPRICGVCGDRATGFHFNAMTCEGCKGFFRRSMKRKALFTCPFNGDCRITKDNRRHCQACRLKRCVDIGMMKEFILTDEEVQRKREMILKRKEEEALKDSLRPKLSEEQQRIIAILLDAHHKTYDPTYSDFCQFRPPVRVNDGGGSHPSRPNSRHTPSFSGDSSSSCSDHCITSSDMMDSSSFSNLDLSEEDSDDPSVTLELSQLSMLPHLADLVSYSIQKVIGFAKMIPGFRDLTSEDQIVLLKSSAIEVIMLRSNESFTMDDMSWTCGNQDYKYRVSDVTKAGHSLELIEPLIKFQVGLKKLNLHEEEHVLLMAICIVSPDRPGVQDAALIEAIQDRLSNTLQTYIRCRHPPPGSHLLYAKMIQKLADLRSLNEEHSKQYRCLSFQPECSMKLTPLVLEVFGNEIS
T1 sequence (P19793 whole entry partner, the tested form may be a part): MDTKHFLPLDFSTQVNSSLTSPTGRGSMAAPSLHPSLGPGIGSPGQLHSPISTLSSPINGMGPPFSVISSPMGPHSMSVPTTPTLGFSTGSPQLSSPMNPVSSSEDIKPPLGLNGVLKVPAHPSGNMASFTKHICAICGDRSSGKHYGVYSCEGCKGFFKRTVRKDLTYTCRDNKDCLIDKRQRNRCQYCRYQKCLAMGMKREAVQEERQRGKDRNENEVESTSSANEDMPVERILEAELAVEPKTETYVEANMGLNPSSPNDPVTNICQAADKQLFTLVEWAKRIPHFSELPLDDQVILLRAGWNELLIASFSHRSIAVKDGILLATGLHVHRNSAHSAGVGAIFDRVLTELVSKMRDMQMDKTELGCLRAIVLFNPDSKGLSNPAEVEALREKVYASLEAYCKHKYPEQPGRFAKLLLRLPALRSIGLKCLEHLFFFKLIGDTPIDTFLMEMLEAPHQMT
T1 sequence (Q15648 whole entry partner, the tested form may be a part): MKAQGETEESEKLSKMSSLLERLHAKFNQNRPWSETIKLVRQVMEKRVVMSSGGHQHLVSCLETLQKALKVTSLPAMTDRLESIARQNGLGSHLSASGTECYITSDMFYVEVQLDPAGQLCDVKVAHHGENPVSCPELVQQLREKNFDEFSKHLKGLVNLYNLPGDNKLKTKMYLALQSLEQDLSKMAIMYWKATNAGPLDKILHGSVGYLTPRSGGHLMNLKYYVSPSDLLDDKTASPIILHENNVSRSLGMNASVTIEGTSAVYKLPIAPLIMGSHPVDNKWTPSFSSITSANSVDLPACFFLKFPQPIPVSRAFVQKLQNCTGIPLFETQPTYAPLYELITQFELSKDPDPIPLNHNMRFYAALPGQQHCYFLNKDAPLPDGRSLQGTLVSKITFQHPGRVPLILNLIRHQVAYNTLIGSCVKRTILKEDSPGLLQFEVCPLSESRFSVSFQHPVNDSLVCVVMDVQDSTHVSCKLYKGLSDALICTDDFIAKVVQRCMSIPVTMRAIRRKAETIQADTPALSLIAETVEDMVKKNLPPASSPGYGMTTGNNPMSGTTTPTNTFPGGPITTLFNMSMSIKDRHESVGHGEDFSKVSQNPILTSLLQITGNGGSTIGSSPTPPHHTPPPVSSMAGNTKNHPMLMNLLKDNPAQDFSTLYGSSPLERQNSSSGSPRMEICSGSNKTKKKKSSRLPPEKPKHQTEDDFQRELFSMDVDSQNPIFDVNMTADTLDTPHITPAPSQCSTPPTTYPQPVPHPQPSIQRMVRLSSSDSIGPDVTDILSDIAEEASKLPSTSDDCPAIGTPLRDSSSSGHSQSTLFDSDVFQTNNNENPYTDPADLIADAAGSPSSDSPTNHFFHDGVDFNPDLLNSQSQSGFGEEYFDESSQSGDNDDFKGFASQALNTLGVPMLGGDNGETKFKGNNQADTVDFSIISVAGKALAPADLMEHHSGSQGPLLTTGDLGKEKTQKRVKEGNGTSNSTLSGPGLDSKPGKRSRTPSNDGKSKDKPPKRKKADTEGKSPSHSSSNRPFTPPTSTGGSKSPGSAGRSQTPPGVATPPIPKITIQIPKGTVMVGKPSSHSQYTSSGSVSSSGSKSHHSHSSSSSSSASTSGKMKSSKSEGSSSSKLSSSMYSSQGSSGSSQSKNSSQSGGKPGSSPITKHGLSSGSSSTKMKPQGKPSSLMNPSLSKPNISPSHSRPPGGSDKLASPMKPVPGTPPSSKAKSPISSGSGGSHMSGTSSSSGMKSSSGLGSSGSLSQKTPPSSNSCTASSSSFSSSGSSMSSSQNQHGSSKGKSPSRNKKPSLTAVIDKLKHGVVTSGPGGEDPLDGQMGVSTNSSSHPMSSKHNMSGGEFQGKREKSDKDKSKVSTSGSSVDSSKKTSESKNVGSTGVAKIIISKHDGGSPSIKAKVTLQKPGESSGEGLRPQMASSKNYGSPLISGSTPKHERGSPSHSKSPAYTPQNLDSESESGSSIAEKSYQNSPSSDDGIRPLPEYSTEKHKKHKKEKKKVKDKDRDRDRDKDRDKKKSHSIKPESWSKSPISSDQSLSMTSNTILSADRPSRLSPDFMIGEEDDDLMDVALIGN
Method: The activity of all molecules was evaluated using a luminescent proximity homogeneous assay to study interactions between purified VDR, RxR and a fragment of the transcriptional coactivator TRAP220 (Supporting Information). This method allowed us to monitor the interaction between TRAP220 and the activated VDR-RxR heterodimer, which is of mechanistic and physiological significance. Both the activation of VDR and the VDR-RxR heterodimer formation are necessary to promote the whole complex association. This system efficiently includes conformational events of the receptor upon activation that go beyond a simple binding measurement. […]
The activity of all molecules was evaluated using an in-vitro luminescent proximity homogeneous assay by using the Alphascreen technology (Cat No. 6760619R, Perkin Elmer, now Revvity). In a transparent 96-well preplate, 10X concentrations of the compounds were prepared in assay buffer (0.1% bovine serum albumin, 2 mM 1,4-dithiothreitol, 25 mM HEPES and 100 mM NaCl; pH 7.3). LSN2148936 was used as positive control. Purified histidine-tagged VDR (44 µM), flag-RxRa (5.7 µM), biotin tagged TRAP220 transcriptional coactivator (500 µM), and the donor and acceptor beads from the AlphaScreen kit (2 µL/mL each), were diluted in assay buffer. In the dark, 6 µL/well of each test compound were pipetted on a white, shallow 96-well ProxiPlateTM […]
(§3) (Perkin Elmer, now Revvity, Cat.No. 6006290) in duplicate. Immediately, 54 µL of the protein solution were added and the plate was covered and incubated for 30 min at room temperature in the dark. Meanwhile, the plate with the 10X dilutions was illuminated at 365 nm for 3 min in a 96-well DED array plate (LEDA Teleopto), to allow the photoconversion of the molecules to their cis configuration. The illuminated compounds were mixed with the protein solution and incubated as described above for the plate in the dark. After the incubation time, the counts of both, the dark and illuminated plates, were measured in a Tecan Spark 20M Multimode plate reader with defined settings (excitation: 680 nm, emission: 520-620 nm, excitation time: 100ms, integration time: 300 ms). Biotinylated-His6 peptide (PerkinElmer) was used as a quality control reagent for AlphaScreen® assays and to evaluate compound interaction with the method. The raw data were normalized to the effect of the buffer (0%) and the maximum response obtained with LSN2148936 (100%). Dose-response curves and EC50 values were calculated with Graphpad software. Each experiment was performed in triplicate, with 2 replicates per plate.
4. Hydrogen/deuterium exchange coupled to mass spectrometry (HDX-MS)
The HDX-MS experiments were performed with an in-house automated modular system interfaced with an Orbitrap Exploris 480 mass spectrometer.1 Two inter-day experiments were conducted: one in the dark (first day) and one illuminated with 365 nm light (second day). Sample preparation and on-exchange reactions were performed on opaque plates (VWR® Real-Time […]
mm, Part Nº BC5226) light source was positioned above the Tecan system used for sample preparation. The distance between the UV light and the opaque plates was 80 cm. The 365 nm light illuminated the sample preparation process and the on-exchange reaction on the second day.
A 10 µM VDR-LBD protein stock solution was prepared in 20 mM HEPES buffer (with 150 mM NaCl, 10 mM D-L Methionine and 5 mM DTT) at pH 7.5. The compound 11b was prepared at 10 mM in DMSO. The protein: compound-complex (1:10 molar ratio) was pre-incubated for 1h before the first on-exchange reaction. The HDX reaction was initiated by a 5-fold dilution of the protein stock solution, in the presence and absence of compound 11b, in the corresponding Deuterated buffer at room temperature. Samples were prepared in parallel with three replicates of […]
time point, HDX reactions were quenched with a solution of 3 M Urea and 1% TFA (pH 2.5) followed by online proteolysis with an in-house Pepsin immobilized column and desalting […]

[5] = molecular target: T2, VDR-LBD (Homo sapiens, UniProt P11473); assay: HDX-MS of VDR-LBD with ligand in the dark and under 365 nm light; format: binding; details: dark vs 365 nm illumination
T2 construct: VDR-LBD protein stock solution was prepared in 20 mM HEPES buffer
T2 sequence (P11473 127-423 limits assumed): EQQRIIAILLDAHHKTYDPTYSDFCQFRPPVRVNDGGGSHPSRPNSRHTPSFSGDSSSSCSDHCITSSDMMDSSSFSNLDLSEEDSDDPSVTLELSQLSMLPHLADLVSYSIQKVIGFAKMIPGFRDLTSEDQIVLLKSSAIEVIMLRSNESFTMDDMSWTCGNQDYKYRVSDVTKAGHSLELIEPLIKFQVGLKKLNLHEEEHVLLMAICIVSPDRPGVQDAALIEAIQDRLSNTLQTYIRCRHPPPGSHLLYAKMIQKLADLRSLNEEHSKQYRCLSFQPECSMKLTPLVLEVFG
Method: Although previously used to study the effect of a cyclic azopeptide in its activated cis state, here we studied the target dynamics upon direct application of the light to the sample. To this aim, HDX-MS was applied for the characterization of the binding mode and modulation of receptor dynamics of the racemic compound PhotoVDRM. VDR-LBD was incubated alone (to provide an apo control for each experiment) or with an excess of compound PhotoVDRM and exposed to deuterium labeling for various periods of time, from 10 s to 2 h, in the dark and illuminated with light at 365 nm. […] As an additional control experiment, we also evaluated the HDX-MS of VDR-LBD in the presence and absence of a standard agonist, compound LSN2148936, in the dark and under illumination conditions. […] In order to permit direct comparison, including mathematical manipulation of the data in all these experiments, the observed deuterium incorporation percentages were converted to rate constants (expressed as −log10(k)) using our previously published Bayesian approach.
as §3, with “The raw data were normalized to the effect of the buffer (0%) and the maximum response obtained with LSN2148936 (100%).” left out, “Each experiment was performed in triplicate, with 2 replicates per plate.” left out

[6] = molecular target: T1, VDR; details: vs other steroid receptors such as the glucocorticoid; no reference given; cited from earlier work
[7] = Serum total calcium measurement in mice (Arsenazo III); format: in vivo; details: after treatment i.p. days 2-4 (LSN2148936 0.005 mg/kg, PhotoVDRM 0.5 mg/kg), 420 or 520 nm
[8] = system: IL-23-induced psoriatic-like inflammation; assay: IL-23-induced mouse model of psoriasis (ear thickness); format: in vivo, C57BL/6N mice; details: 420 or 520 nm light regime; i.p. LSN2148936 0.005 mg/kg
Method: Each mice was administered interlueukin 23 (IL-23) once a day for a total of 3 days by intradermal injection (i.d.) into one of the mouse ears. Contralateral ear i.d. injected with PBS was used as control. Subsequently, ear thickness was measured daily, by using a digital caliper, as indicative of psoriasis-course progression (Figure A).
(A) Temporal scheme for IL-23-induced mouse model of psoriasis. Animals were treated with IL-23 (i.d.) in the left ear during three consecutive days (days 1, 2 and 3). In addition, a contralateral control was performed consisting of PBS administration in the right ear. At day 2, 3, and 4 animals were previously intraperitoneally (i.p.) administered with vehicle (saline) and drugs (i.e., LSN2148936; 0.005 mg/kg and PhotoVDRM; 0.5 mg/kg). Both ears were irradiated with 420 or 520 nm light at day 2, 3, and 4 during 8 min. […] (C) Inflammatory ear response measurements. Mice ear thickness determination in animals administrated (ip) on days 2, 3, and 4 with vehicle, LSN2148936 or PhotoVDRM treated with 420 or 520 nm light. Each day, ear thickness was measured in millimeters and represented as percentage of ear thickness increase using the first measurement of PBS-administrated ear as control. Data is shown as mean ± SD, n = 5 mice per group. Statistical analysis between PhotoVDRM and vehicle. *P < 0.05 and **P < 0.01 Student’s t test.

[9] = molecular target: T1, VDR; assay: Luminescent proximity homogeneous assay (AlphaScreen): interaction of purified VDR, RxR and TRAP220 coactivator fragment; format: biochemical; details: UVB narrowband light (315 nm) and visible illumination at 420 nm

PSS365 (% cis) ([1]; 3 min illumination 365 nm): 87%
PSS525 (%trans) ([1]; 3 min illumination 525 nm): 86%
t 1/2 (thermal relaxation of cis) [2]: 23.2 h
λn−π* (cis) ([2]; after illumination): 444 nm
λπ–π* (trans) ([2]; dark): 364 nm
%cis at the photostationary state ([3]; 365 nm): 96,95%
%trans at the photostationary state ([3]; 365 nm): 3,05%
%cis at the photostationary state ([3]; 380 nm): 95,69%
%trans at the photostationary state ([3]; 380 nm): 4,31%
%cis at the photostationary state ([3]; 405 nm): 59,74%
%trans at the photostationary state ([3]; 405 nm): 40,26%
%cis at the photostationary state ([3]; 420 nm): 56,13%
%trans at the photostationary state ([3]; 420 nm): 43,87%
%cis at the photostationary state ([3]; 470 nm): 28,95%
%trans at the photostationary state ([3]; 470 nm): 71,05%
%cis at the photostationary state ([3]; 500 nm): 30,48%
%trans at the photostationary state ([3]; 500 nm): 69,52%
%cis at the photostationary state ([3]; 530 nm): 26,87%
%trans at the photostationary state ([3]; 530 nm): 73,13%
Structure (SMILES): Cc1cc(/N=N/c2cccc(-c3ccc(CO)cc3C)c2)ccc1OCC(O)C(C)(C)C (centres unmarked) [Compound 12c]

Structure (SMILES): CCC(CC)(c1ccc(CCC(O)C(C)(C)C)c(C)c1)c1ccc(C(=O)N(C)CC(=O)O)c(C)c1 (centres unmarked) [LSN2148936, reference compound]
Emax ([4]; after illumination (365 nm) for 3 min, normalized to maximum response of LSN2148936 (100%), mean ± SEM): 107 ± 0.08%
effect of application of light on activity (control) ([4]; dark vs 365 nm): not affected
light-dependent changes of HDX behavior [5]: no significant light-dependent changes
selectivity for VDR [6]: highly selective
effect on calcium homeostasis (serum total calcium) [7]: significant effects
IL-23-induced ear inflammation (ear thickness) [8]: prevented IL-23-associated inflammatory response
modulation of activity by light [9]: not
